The text below walks through data of PubChem BioAssay AID2060501 (Molecular Pharmacology Branch, DTP, NCI, 2025).

One may read the viability, T/C as the ratio of treated to control. Broadly, the IC50 is the concentration that gives 50% inhibition.

Several values for one entry are separate records, joined by “and”; a condition that tells them apart may be missing. Equal entries are not always repeated.

The test relates to 282377-053-R-J1-PDC complex spheroids, viability. Nature of the test: Anticancer human tumor 282377-053-R-J1-PDC patient-derived colon adenocarcinoma cell line growth inhibition [GQUAD]. The following applies: for viability, T/C: stronger effect = lower value; for IC50: curve of compound. The source says:
DNA G-quadruplex Stabilizer Agents in Combinations in Complex Spheroids
A high-throughput screen of multi-cell type tumor spheroids was designed to identify active combinations of DNA G-quadruplex stabilizer agents and targeted small molecules. Complex spheroids include a stromal component modeled by human endothelial cells (HUVEC) and fibroblasts modeled by human mesenchymal stem cells (MSCs). The concentration ranges selected for each drug and investigational agent were based upon clinically achievable concentrations if the clinical Cmax of the agent was known.
Compounds. The drugs and investigational agents: pidnarulex (CX-5461; NSC782164), APTO-253 (NSC789042), BRACO-19 (NSC847499), peposertib (NSC802822), ceralasertib (NSC780249), elimusertib (NSC800525), camonsertib (NSC841442), AZD-1390 (NSC803789), olaparib (NSC753686), talazoparib (NSC767125), ART-558 (NSC835418), sotorasib (NSC818433), MRTX-1133 (NSC836407), SN-38 (NSC673596), topotecan (NSC609699), etoposide (NSC141540), doxorubicin (NSC123127), gemcitabine (NSC613327), 5-fluorouracil (NSC19893), paclitaxel (NSC125973), vemurafenib (NSC761431), panobinostat (NSC761190), R-306465 (JNJ-16241199; NSC773264), adavosertib (NSC754352), TP-3654 (NSC805149), carboplatin (NSC241240), KSQ-4279 (NSC840948), and staurosporine (NSC755774) were obtained from the National Cancer Institute (NCI) Developmental Therapeutics Program Chemical Repository (34). The FDA-approved anticancer drug set is available from the NCI Developmental Therapeutics Program. […] The stock solutions were prepared in dimethyl sulfoxide (DMSO, Sigma-Aldrich, St. Louis, MO, cat. D2650) at 800-fold the tested concentration and stored at -70 degrees C prior to their use. All drugs and investigational agents were tested over a range starting from a high concentration at or near the clinical Cmax and decreasing in half-log increments. If the clinical Cmax for an agent had not been determined, the highest concentration tested was 10 microM.
2.3 Cell Culture. All cells were maintained in an incubator at 37 degrees C and 5% CO2 with 95% humidity. The PDC lines were cultured according to standard operating procedures established by the NCI PDMR. All PDCs were thawed and cultured in Matrigel-coated flasks prepared with a working solution of 1X Ham's F-12 nutrient mix, without supplementation (Invitrogen, cat. 11765054), 100 U/mL penicillin-streptomycin (Invitrogen, cat. 15140122), and 2.5% Matrigel (Corning Inc., cat. 354248) for the first three passages. The 857933-349-R-J2-PDC line was cultured in 6C/Colon 1B media, which includes advanced DMEM/F-12 (Thermo Fisher Scientific, cat. 12634028), 10 mM HEPES (Thermo Fisher Scientific, cat. 15630080), 1X GlutaMAX supplement (Thermo Fisher Scientific, cat. 35050061), 0.1 mg/mL primocin (InvivoGen, cat. ant-pm-2), 10% defined fetal bovine serum, heat inactivated (HyClone Laboratories Inc., cat. SH30070.03HI), 50% L-WRN conditioned media (ATCC, cat. CRL-3276), 1.25 mM N-Acetyl-L-cysteine (Sigma-Aldrich, cat. A9165), 10 mM nicotinamide (Sigma-Aldrich, cat. N0636), 1X B-27 supplement (Thermo Fisher Scientific, cat. 17504044), 1X N-2 supplement (Thermo Fisher Scientific, cat. 17502048), 10 microM Y-27632 dihydrochloride (Tocris Bioscience, cat. 1254), and 50 ng/mL human EGF recombinant protein (Thermo Fisher Scientific, cat. PHG0311). The 485176-168-R4-J1-PDC line was cultured in Panc media, which includes all 6C/Colon 1B media components plus 100 ng/mL human FGF-10 (Thermo Fisher Scientific, cat. 100-26), 500 nM SB-431542 (Selleckchem, cat. S1067), and gastrin (Tocris, cat. 3006).
[…]
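Note: spheroids exposed to compounds for 7 days before readout.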
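Throughout, for viability, T/C: percent of vehicle DMSO control viability with 100% = untreated-like growth.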

Turning to `C#Cc1c(F)ccc2cc(O)cc(-c3ncc4c(N5CC6CCC(C5)N6)nc(OCC56CCCN5CC(F)C6)nc4c3F)c12` (stereo not given), the IC50 is > 10000 nM and 2420 nM. Besides, the viability, T/C (compound 0.0316 µM) is 103% and 112% and 90.1%. In addition, for the setting “compound 0.1 µM”, the viability, T/C was 102% and 93.9% and 80.2%. Further, the viability, T/C (compound 0.316 µM) was 110% and 81.1% and 95.1%. The viability, T/C (compound 1 µM) is 86.2% and 90.6% and 93.1%. In addition, the viability, T/C (compound 3.16 µM) was 101% and 33.1% and 95.4%. In addition, under “compound 10 µM”, the viability, T/C was 82.8% and 42.6% and 77.7%.

As to `C=CC(=O)N1CCN(c2nc(=O)n(-c3c(C)ccnc3C(C)C)c3nc(-c4c(O)cccc4F)c(F)cc23)C(C)C1` (stereo not given), the IC50 was over 10000 nM. For the same compound, the viability, T/C (compound 0.0316 µM) was 114% and 108% and 103%. The viability, T/C (compound 0.1 µM) was 92.4% and 90.8% and 92.9%. Moreover, the viability, T/C (compound 0.316 µM) is 104% and 91.5% and 93.6%. Further, the viability, T/C (compound 1 µM) is 91.5% and 93.8% and 96.1%. In addition, the viability, T/C (compound 3.16 µM) is 105% and 95.6% and 103%. Further, the viability, T/C (compound 10 µM) was 97.3% and 80.3% and 106%.

With `CC(=O)O[C@H]1C(=O)[C@@]2(C)[C@H]([C@H](OC(=O)c3ccccc3)[C@]3(O)C[C@H](OC(=O)[C@H](O)[C@@H](NC(=O)c4ccccc4)c4ccccc4)C(C)=C1C3(C)C)[C@]1(OC(C)=O)CO[C@@H]1C[C@@H]2O`, the viability, T/C was 114% and 62.1% and 42.4% (compound 0.0316 µM); 98.5% and 13.8% and 13.7% (compound 0.1 µM); 89% and 15.7% and 17% (compound 0.316 µM); 4.35% and 20.7% and 17.9% (compound 1 µM); 0.15% and 21.9% and 16.7% (compound 3.16 µM).

Turning to `CC(C)(O)C1CCC(Nc2ccc3ncc(-c4cccc(C(F)(F)F)c4)n3n2)CC1` (stereo not given), the half-maximal inhibitory concentration (IC50) is > 10000 nM and 2380 nM and 1590 nM. The viability, T/C (compound 0.0316 µM) is 95.4% and 108% and 93.2%. For the setting “compound 0.1 µM”, the viability, T/C is 77.4% and 81.7% and 98.5%. The viability, T/C (compound 0.316 µM) is 107% and 80.8% and 81.9%. Further, the viability, T/C (compound 1 µM) was 96.5% and 87.1% and 71.6%. Further, the viability, T/C (compound 3.16 µM) was 101% and 33.2% and 13.8%. The viability, T/C (compound 10 µM) was 95% and 42.3% and 22.1%.

On to `CC(C)n1c(=O)n(C)c2cnc3cc(F)c(-c4ccc(OCCCN5CCCCC5)nc4)cc3c21`, for which the IC50 is over 10000 nM. Further, the viability, T/C (compound 0.0316 µM) is 104% and 100% and 77.6%. For the same compound, the viability, T/C (compound 0.1 µM) was 107% and 87.5% and 98.7%. Further, the viability, T/C (compound 0.316 µM) was 94.4% and 95.6% and 105%. Further, the viability, T/C (compound 1 µM) was 94.8% and 106% and 92.8%. Moreover, the viability, T/C (compound 3.16 µM) is 102% and 97.1% and 111%. Moreover, the viability, T/C (compound 10 µM) was 113% and 80.3% and 102%.

Regarding `CC1COCCN1c1cc(-c2ccnn2C)c2ccnc(-c3ccn[nH]3)c2n1` (stereo not given), the IC50 is 696 nM and 555 nM and 247 nM. In addition, the viability, T/C (compound 0.0316 µM) is 76.8% and 96.3% and 95.7%. For the same compound, the viability, T/C (compound 0.1 µM) is 80.2% and 78.9% and 53%. Under “compound 0.316 µM”, the viability, T/C was 61.4% and 49% and 55.4%. Further, where the note is “compound 1 µM”, the viability, T/C was 43.9% and 49.3% and 38.2%. In addition, for the setting “compound 3.16 µM”, the viability, T/C was 29.3% and 33% and 26.9%. Also, the viability, T/C (compound 10 µM) was 20.9% and 28.2% and 23.2%.

As to `CC1COCCN1c1cc(C2(O)CC3CCC(C2)O3)c2cnn(-c3ccn[nH]3)c2n1` (stereo not given), the 50% inhibitory concentration (IC50) was 491 nM and 478 nM and 530 nM. Moreover, where the note is “compound 0.0316 µM”, the viability, T/C was 80.7% and 77.9% and 79.5%. In addition, the viability, T/C (compound 0.1 µM) was 70% and 87.8% and 83.6%. The viability, T/C (compound 0.316 µM) was 61.8% and 55.8% and 62.1%. In addition, the viability, T/C (compound 1 µM) is 33.2% and 34.6% and 34.8%. For the same compound, the viability, T/C (compound 3.16 µM) was 24.2% and 20.5% and 35.2%. Besides, the viability, T/C (compound 10 µM) is 16.9% and 16.5% and 24.2%.

As for `CC1COCCN1c1cc(C2(S(C)(=N)=O)CC2)nc(-c2ccnc3[nH]ccc23)n1` (stereo not given), the IC50 was 8360 nM and > 10000 nM. Moreover, the viability, T/C (compound 0.0316 µM) is 96.3% and 86.8% and 105%. The viability, T/C (compound 0.1 µM) is 101% and 80.1% and 81.3%. Further, the viability, T/C (compound 0.316 µM) was 100% and 97.5% and 101%. Besides, the viability, T/C (compound 1 µM) is 62.2% and 81.9% and 77.9%. Moreover, where the note is “compound 3.16 µM”, the viability, T/C was 86.1% and 70.7% and 78.6%. Further, the viability, T/C (compound 10 µM) is 42.4% and 60.9% and 49.9%.

As to `CCCS(=O)(=O)Nc1ccc(F)c(C(=O)c2c[nH]c3ncc(-c4ccc(Cl)cc4)cc23)c1F`, the half-inhibitory concentration (IC50) is 1890 nM and 4980 nM and 4340 nM. The viability, T/C (compound 0.0316 µM) was 117% and 88.2% and 74.2%. In addition, for the setting “compound 0.1 µM”, the viability, T/C was 76.3% and 55.9% and 63.7%. Also, under “compound 0.316 µM”, the viability, T/C was 90.1% and 68.8% and 55.6%. In addition, the viability, T/C (compound 1 µM) was 75.6% and 74.8% and 57.6%. Further, the viability, T/C (compound 3.16 µM) was 29.3% and 72.3% and 66.7%. Also, where the note is “compound 10 µM”, the viability, T/C is 17.7% and 16.4% and 14.4%.

In the case of `CC[C@@]1(O)C(=O)OCc2c1cc1n(c2=O)Cc2cc3c(CN(C)C)c(O)ccc3nc2-1`, the IC50 was over 316 nM. Besides, where the note is “compound 0.000999 µM”, the viability, T/C was 98.2% and 99.2% and 107%. The viability, T/C (compound 0.00316 µM) is 92.4% and 87.1% and 103%. Further, the viability, T/C (compound 0.00999 µM) was 106% and 101% and 87.3%. The viability, T/C (compound 0.0316 µM) was 89.3% and 95.4% and 117%. In addition, the viability, T/C (compound 0.0999 µM) is 84% and 109% and 93.1%. Also, the viability, T/C (compound 0.316 µM) is 57.4% and 106% and 60.5%.

Take `CCc1c2c(nc3ccc(O)cc13)-c1cc3c(c(=O)n1C2)COC(=O)[C@]3(O)CC`: the half-inhibitory concentration (IC50) is 38.4 nM and 178 nM and 54.6 nM. In addition, the viability, T/C (compound 0.000999 µM) is 87.9% and 100% and 111%. Moreover, the viability, T/C (compound 0.00316 µM) was 81.8% and 80.9% and 91%. Under “compound 0.00999 µM”, the viability, T/C was 67.7% and 93.2% and 67%. Also, the viability, T/C (compound 0.0316 µM) is 50.7% and 73% and 63.6%. In addition, the viability, T/C (compound 0.0999 µM) is 40.8% and 61.3% and 40.1%. The viability, T/C (compound 0.316 µM) is 29.2% and 39% and 30.2%.
